According to US5541232A, “Treatment of multidrug resistant diseases” (Chemex Pharmaceuticals, Inc., priority 1994, dated 1996):
“Also recorded” adds a separate entry of the source.

What was measured:
[1] = tested on: P-glycoprotein; assay: P-glycoprotein substrate; format: cell-based, human; settings: inferred from colony formation in GRC-1 vs KB-3-1
Excerpt: To investigate whether masoprocol modulates multidrug resistance, a line of multidrug resistant (GRC-1) cells which were derived from parenteral drug sensitive human cervical carcinoma (KB-3-1) cells by transfection of the mdr1 genes were employed. Such transfection was by the method set forth in Choi, et al., Cell 53:519-529, 1989. These cell lines differ only with respect to the over-expression of P-glycoprotein. These tests were designed to examine whether masoprocol modulates tumor cell drug resistance by interfering with P-glycoprotein function. […] See, Regulation of initial vinblastine influx by P-glycoprotein, Shalinsky, et al., cited above.
First, cells which had been seeded at 200-300 cells/dish were incubated in media containing masoprocol or VBL. After an incubation period of 10 days at 37° C. the cells were fixed with methanol and stained with Giemsa, and the number of colonies per dish were counted and expressed as a percent of the number of colonies in control conditions. […] Parenthesis indicate standard deviations determined from replicate experiments.

[2] = tested on: DLD-1 Colon cancer cells; assay: in vitro cytotoxicity anti tumor activity; format: cell-based; settings: Homo sapiens, DLD-1, 1 h; One Hour Pulse Treatment; read-out: IC50
[3] = tested on: MCF7/ADR human breast adenocarcinoma cells; assay: flow cytometry P-glycoprotein function assay of doxorubicin efflux, MCF7/ADR (doxorubicin resistant); format: cell-based
Description: The following tests were preformed to determine the effect of NDGA on efflux of doxorubicin (hereinafter sometimes referred to as DOX) for doxorubicin sensitive MCF7/0 and doxorubicin resistant MCF7/ADR human breast adenocarcinoma cells in vitro.
The cells were exposed to 50 μg/ml NDGA for 24 hrs prior to loading with DOX (doxorubicin) at 37° C. […] PBS. Flow analysis of cell efflux of DOX was collected over 30 minutes using the time parameter.
Procedure for P-Glycoprotein (PGP) Function Assay of Doxorubicin Efflux is shown hereunder.
1. […] Store at room temperature.
2. Doxorubicin (GFW=580) Make a solution of doxorubicin to contain 10 μg/ml. Store frozen at 0° C.
4. NDGA (MW=302.36) Make a solution of NDGA to contain 50 μg/ml. Store frozen at 0° C.
5. MCF7/0 (Doxorubicin sensitive) and MCF7/ADR (Doxorubicin resistant), human breast adenocarcinoma cell lines.
1. Make up 2×10^6 cells per ml in PBS. Expose 1 ml of cells to 50 μg of NDGA for 24 hrs at 37° C. prior to loading with Doxorubicin.
2. Add 1 ml of 10 μg/ml doxorubicin, mix and divide into two aliquots.
4. Incubate both tubes at 37° C. for 30 minutes.
5. Centrifuge the tubes at 37° C. for 5 minutes on a fast spin to pellet cells. Resuspend in 1 ml of buffer.
6. Run immediately on the flow cytometer. Excitation 488 nm, emission 560-600 nm. Collect forward and 90° side scatter and PMT4 linear scale. Collect 10,000-50,000 events and calculate the mean channel fluorescence (MCF) for PMT4.
7. Run both samples as close together as possible, and avoid prolonged exposure to room temperature.

[4] = tested on: GRC-1 multidrug resistant human cervical carcinoma cells; assay: efflux of VBL, GRC-1; format: cell-based; settings: 50 μM masoprocol
Description: A further test was conducted to show the effect of masoprocol on the efflux of VBL from cells. Cells were incubated with [^3 H]VBL with or without 50 μM masoprocol for 2 hours. The medium was then replaced with drug-free medium. After incubation for various times, the amount of VBL remaining in the cells was determined as described above. The data was presented in terms of the percentage of VBL remaining at various efflux times compared to VBL in cells with an efflux time of zero. In FIGS. 3a and 3b, efflux is expressed as pmol VBL. In FIGS. 3c and 3d, efflux is expressed as percentage of VBL levels at time zero.

[5] = tested on: KB-3-1 human cervical carcinoma cells; assay: modulation of cisplatin uptake; format: cell-based; settings: one hour, 5 μM cisplatin; FIG. 5
Description: Subconfluent cultures of KB-3-1 cells were incubated with [^3 H]cisplatin (cis-DDP) in culture medium or in medium containing the indicated concentrations of masoprocol as presented in FIG. 5. After one hour incubation, the medium was aspirated and the cells washed 5 times with ice cold PBS. Cells were digested overnight in 1N NaOH, at which time aliquots were used to determine protein content and radioactivity. The final concentration of cisplatin was 5 μM. Each data point represents the mean of triplicate dishes from replicate experiments. The vertical bars are +/- standard deviations.

[6] = tested on: WI-38 Lung Fibroblasts; assay: in vitro cytotoxicity, normal cells; format: cell-based; settings: Homo sapiens, WI-38, 1 h; One Hour Pulse Treatment; read-out: IC50
[7] = tested on: malignant melanoma; settings: in vivo; cited from earlier work
[8] = tested on: KB-3-1 human cervical carcinoma cells; assay: initial influx of VBL, KB-3-1; format: cell-based; settings: 50 μM masoprocol added concurrently with VBL, 3 to 24 seconds; FIG. 4b
Description: A further test was conducted to show the effect of masoprocol on the initial influx of VBL. Cells were exposed to media containing [^3 H]VBL with and without 50 μM masoprocol. After incubation times ranging from 3 seconds to 24 seconds, the media was removed. The amount of VBL taken up by the cells was determined as described in A. The data was summarized from four replicate experiments. FIG. 4apresents the results for the GRC-1 cell line, and FIG. 4b for the KB-3-1 cell line.

[9] = tested on: human breast adenocarcinoma; settings: cited from earlier work
[10] = stability to oxidation; format: physicochemical; settings: for example, by air
Excerpt: The pH of the formulation is important in assuring stability of NDGA or its analogue as well as assuring that the formulation is physiologically acceptable to the patient. […] Such oxidation can result in discoloration of the formulation rendering it unacceptable for pharmaceutical use. […] Therefore, it is preferred that if the formulation is to be exposed to oxidizing conditions the pH to be maintained below about 7 and preferably below about 6 in order to provide maximum stability for the compound against oxidation. However, if the oxidizing conditions can be avoided, for example, by storage of the formulation under an inert atmosphere such as nitrogen, a higher pH can be used. The pH of the formulation may be maintained through the use of toxicologically-acceptable buffers. Such buffers are well-known in the pharmaceutical formulation art, and include hydrochloric acid buffer, acid phthalate buffer, phosphate buffer and citric acid/sodium citrate buffer.

P-glycoprotein substrate [1]: not a substrate for P-glycoprotein | susceptibility to oxidation [10]: susceptible to oxidation
Compound: C[C@H](Cc1ccc(O)c(O)c1)[C@@H](C)Cc1ccc(O)c(O)c1 [Masoprocol, meso-1,4-bis (3,4-dihydroxyphenyl)-2,3-dimethylbutane]
IC50 [2]: 124 µM | activation at 50 µg/mL ([3]; Homo sapiens, NCI/ADR-RES, 24 h, read-out: % DOX increase w/NDGA): 25.6% | DOX loading / retention / efflux (in words) ([3]; resistant cells, listed as NDGA): augmentation of DOX retention; also recorded: will inhibit the efflux of DOX | modulation of VBL efflux [4]: does not modulate VBL efflux | VBL levels at efflux time zero ([4]; 2 hours, FIG. 3a): higher in masoprocol-treated cells | percent of VBL retained at various efflux time points ([4]; FIG. 3c): not affected by masoprocol treatment | modulation of VBL efflux ([4]; listed as masoprocol): does not influence the rate of efflux of VBL | increase in uptake of cisplatin [5]: about 25% | IC50 [6]: 159 µM | result against malignant melanoma [7]: positive result | initial VBL uptake (influx) [8]: substantial increase in initial VBL uptake; also recorded: effective modulator of initial VBL influx; also recorded: promotes the initial uptake of VBL | effectiveness against human breast adenocarcinoma [9]: particularly effective
